# According to patent US11981951B2, “Process for the production of methyl methacrylate” (Mitsubishi Chemical UK Limited, priority 2016, dated 2024):
# Where two headings read alike, the source gives them in different places.
# Key:
# [1] = Extraction of BMA and MMA from biotransformation medium into dodecane (GC-FID); assay type: physicochemical; conditions: for average amount extracted into dodecane: across all samples
# Description: The samples from the BMA/MMA extraction experiments were analysed using gas chromatography under the following operating conditions:
# Biomass was harvested from each flask and a separate biotransformation conducted. BMA and MMA levels in dodecane following solvent extraction was quantified by gas chromatography flame ionization detector (GC-FID).
# In a 1 I baffled shake flask, a starter culture of 200 ml LB medium containing 200 µg/ml ampicillin was grown for 16.33 hours. The culture was back diluted to OD600 0.2 into 5 1 I baffled shake flasks containing 300 ml fresh LB medium and left to grow at 30° C. and 250 rpm for 23.35 hours. The biomass was then harvested by centrifugation at 5000 rpm and 4° C. for 15 minutes. Each cell pellet was washed with 100 mM sodium phosphate (pH 6.7) and the centrifugation step was repeated. The biomass was resuspended in the required volume of biotransformation medium until an OD600 of 25 was reached.
# Biotransformation reactions were conducted in 5×250 ml sealed Schott bottles at 30° C. and 180 rpm for 24 hours.
# Samples were taken for GC-FID analysis at 5 hour and 24 hour time points. At each time point 5 ml sample was removed and transferred to a 15 ml falcon tube. Acetonitrile (5 ml) was added in addition to dodecane (1 ml). The mixture was vigorously shaken at >800 rpm for 10 minutes before centrifugation at 3900 rpm and 20° C. for 20 minutes. A 500 μl sample was taken from both the organic and aqueous phases, filtered through a 0.45 μm filter and placed in a crimped lid gas chromatography vial prior to injection.
# Quantification of BMA and MMA levels in biotransformation samples was achieved by using external standard calibration […] obtained by preparing volumetric stock solutions of BMA and MMA at known concentrations.
# [2] = tested on: S. cerevisiae strain DSM70449; assay: Growth inhibition (methacrylate ester toxicity) test, S. cerevisiae; assay type: cell-based; conditions: Saccharomyces cerevisiae, read-out: IC50 range
# E. coli strain MG1655 = assay: Growth inhibition (methacrylate ester toxicity) test, E. coli; assay type: cell-based; conditions: Escherichia coli
# [3] = logPo/w (1-octanol/water partition coefficient); assay type: physicochemical
# Text: In embodiments, the organic solvent has a logPo/w value of greater than or equal to 3.0. More preferably, the organic solvent has a logPo/w value of greater than or equal to 3.6, 3.7, 3.8, 3.9 or 4.0. logPo/w is defined as the logarithm of the partition coefficient of a particular solvent between a standardized 1:1 mixture of 1-octanol and water. The present inventors have shown that, with increasing logPo/w value there is a decrease in the resultant microorganism toxicity. Particularly preferred solvents are higher alkanes of C6 and above which may be linear or branched, cyclic alkanes of C7 and above and aromatic compounds, particularly benzene, substituted with one or more substituents of C3 and above, particularly alkyl substituents which may be linear or branched.
# [4] = Solubility limit in the fermentation medium; assay type: physicochemical; conditions: plasma or biological fluid
# Description: In embodiments where the C3-C12 methacrylate ester is butyl methacrylate, it is particularly preferred that the titre of butyl methacrylate in the fermentation medium is at least 120, 130, 140, 150 or 200 mg/l. […] At such a concentration, the need for an additional extraction solvent may be negated.
# [5] = S. cerevisiae DSM70449 in YEPD complex medium, final biomass after 72 hours, concentration that halves MaxOD600
# [6] = MG1655, E. coli grown in MSX medium, from final biomass concentrations, read-out: IC50 range
# [7] = E. coli MG1655 in LB complex medium, final biomass after 72 hours, concentration that halves MaxOD600, read-out: IC50 range
SMILES,average amount extracted into dodecane [1],extraction efficiency into dodecane compared to MMA ([1]; biotransformations 2 and 3 (40 mg/l added)) [×],extraction efficiency into dodecane compared to MMA ([1]; biotransformations 4 and 5 (100 mg/l added)) [×],"IC50 [2, 5] [µg/mL]",IC50 (E. coli strain MG1655; [6]) [µg/mL],IC50 (E. coli strain MG1655; [7]) [µg/mL],logPo/w ([3]; 1-octanol/water (1:1)),solubility [4] [µg/mL],"IC50 ([2]; DSM70449, 72 h) [µg/mL]","IC50 (E. coli strain MG1655; MG1655, 72 h, read-out: IC50 range) [µg/mL]","IC50 (E. coli strain MG1655; MG1655, read-out: IC50 range) [µg/mL]",logPo/w [3]
"C=C(C)C(=O)OCCCC [BMA, butyl methacrylate]",around 35.6%,2.7,3.3,40 to 70,70 to 110,70 to 110,2.57,~220,,,,
"C=C(C)C(=O)OC [MMA, methyl methacrylate]",~10.5%,,,,,,0.95,,730 to 1450,3190 to 4250,3190 to 4250,
"C=C(C)C(=O)OC(C)C [iPMA, isopropyl methacrylate]",,,,660 to 990,1180 to 1770,1180 to 1770,,,,,,1.81
